Several values for one entry are separate records, joined by “and”; a condition that tells them apart may be missing. Identical values can stand only once. Toxic doses and inconclusive results are not listed. No stated cut-off is given here; in the data, active means T/C of 150% or more; inactive means T/C below 125%.
Test system: L1210 leukemia ip in BDF1 mice, survival T/C
Experiment: NCI In Vivo Anticancer Drug Screen. Data for tumor model L1210 Leukemia (intraperitoneal) in B6D2F1 (BDF1) mice
Details: endpoint: mean survival time, higher = longer survival
Method in brief: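 Read-out is survival time, reported as the treated-group measurement over the vehicle-control measurement.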

[1] = dose: 100.0 mg/kg/injection, schedule: Q04DX003 (ip), vehicle: saline with Tween-80
[2] = dose: 200.0 mg/kg/injection, schedule: Q04DX003 (ip), vehicle: saline with Tween-80
[3] = dose: 400.0 mg/kg/injection, schedule: Q04DX003 (ip), vehicle: saline with Tween-80
[4] = dose: 50.0 mg/kg/injection, schedule: Q01DX001 (ip), vehicle: saline
[5] = dose: 100.0 mg/kg/injection, schedule: Q01DX001 (ip), vehicle: saline
[6] = dose: 200.0 mg/kg/injection, schedule: Q01DX001 (ip), vehicle: saline
[7] = dose: 400.0 mg/kg/injection, schedule: Q01DX001 (ip), vehicle: saline
[8] = dose: 100.0 mg/kg/injection, schedule: Q04DX002 (ip), vehicle: saline with Tween-80
[9] = dose: 200.0 mg/kg/injection, schedule: Q04DX002 (ip), vehicle: saline with Tween-80
[10] = dose: 400.0 mg/kg/injection, schedule: Q04DX002 (ip), vehicle: saline with Tween-80
[11] = dose: 100.0 mg/kg/injection, schedule: Q01DX009 (ip), vehicle: saline with Tween-80
[12] = dose: 50.0 mg/kg/injection, schedule: Q04DX002 (ip), vehicle: saline with Tween-80

Measured: T/C

Nc1nc(CBr)c(CCCCc2ccccc2)c(=O)[nH]1
inactive: dose: 37.5 mg/kg/injection, schedule: Q01DX001 (ip), vehicle: saline with Tween-80 100 % of control | dose: 75.0 mg/kg/injection, schedule: Q01DX001 (ip), vehicle: saline with Tween-80 101 % of control

N#C/C(=C\c1ccc2c(c1)CCC2)C(N)=O
inactive: [1] 105 % of control | [2] 95 % of control | [3] 95 % of control

O=C(Nc1ccc(Br)cc1)C(Br)C(Br)c1ccccc1 (centres undefined)
inactive: dose: 100.0 mg/kg/injection, schedule: Q04DX002 (ip), vehicle: Klucel (hydroxypropylcellulose) (HPC) 98 % of control | dose: 200.0 mg/kg/injection, schedule: Q04DX002 (ip), vehicle: Klucel (hydroxypropylcellulose) (HPC) 88 % of control | dose: 400.0 mg/kg/injection, schedule: Q04DX002 (ip), vehicle: Klucel (hydroxypropylcellulose) (HPC) 98 % of control

O=C(CCCC(=O)N/N=C/c1cccc(O)c1)N/N=C\c1cccc(O)c1
inactive: [4] 98 % of control | [5] 104 % of control | [6] 98 % of control | [7] 92 % of control

Nc1ncnc2c1ccn2C1OC(CO)C(O)C1O (centres undefined)
inactive: dose: 0.25 mg/kg/injection, schedule: Q01DX Z (ip), vehicle: carboxymethylcellulose (CMC) 101 % of control | dose: 0.5 mg/kg/injection, schedule: Q01DX001 (ip), vehicle: carboxymethylcellulose (CMC) 108 % of control | dose: 0.5 mg/kg/injection, schedule: Q01DX Z (ip), vehicle: carboxymethylcellulose (CMC) 104 % of control | dose: 0.5 mg/kg/injection, schedule: Q02DX009 (ip), vehicle: carboxymethylcellulose (CMC) 109 % of control | dose: 0.5 mg/kg/injection, schedule: Q## X003 (ip), vehicle: carboxymethylcellulose (CMC) 110 % of control | dose: 0.75 mg/kg/injection, schedule: Q01DX Z (ip), vehicle: carboxymethylcellulose (CMC) 104 % of control | dose: 1.0 mg/kg/injection, schedule: Q01DX001 (ip), vehicle: carboxymethylcellulose (CMC) 113 % of control | dose: 1.0 mg/kg/injection, schedule: Q01DX Z (ip), vehicle: carboxymethylcellulose (CMC) 106 % of control | dose: 1.0 mg/kg/injection, schedule: Q02DX009 (ip), vehicle: carboxymethylcellulose (CMC) 115 % of control | dose: 1.0 mg/kg/injection, schedule: Q## X003 (ip), vehicle: carboxymethylcellulose (CMC) 111 % of control | dose: 1.0 mg/kg/injection, schedule: Q## X005 (ip), vehicle: carboxymethylcellulose (CMC) 113 % of control | dose: 1.2 mg/kg/injection, schedule: Q01DX001 (ip), vehicle: carboxymethylcellulose (CMC) 107 % of control | dose: 1.25 mg/kg/injection, schedule: Q01DX Z (ip), vehicle: carboxymethylcellulose (CMC) 116 % of control | dose: 1.9 mg/kg/injection, schedule: Q01DX001 (ip), vehicle: carboxymethylcellulose (CMC) 119 % of control | dose: 2.0 mg/kg/injection, schedule: Q02DX009 (ip), vehicle: carboxymethylcellulose (CMC) 122 % of control | dose: 2.0 mg/kg/injection, schedule: Q## X003 (ip), vehicle: carboxymethylcellulose (CMC) 123 % of control | dose: 2.0 mg/kg/injection, schedule: Q## X005 (ip), vehicle: carboxymethylcellulose (CMC) 120 % of control | dose: 2.5 mg/kg/injection, schedule: Q01DX Z (ip), vehicle: carboxymethylcellulose (CMC) 98 % of control | dose: 4.0 mg/kg/injection, schedule: Q## X005 (ip), vehicle: carboxymethylcellulose (CMC) 102 % of control

C#CC1(O)CCCCCC1
inactive: [8] 95 % of control | [9] 100 % of control | [10] 92 % of control

CN=[N+]([O-])c1ccccc1
inactive: [5] 100 % of control | [6] 100 % of control | [7] 97 % of control

CCNC(=O)NC(=O)C(C)(C)Oc1ccc(Cl)cc1
inactive: dose: 50.0 mg/kg/injection, schedule: Q01DX009 (ip), vehicle: saline with Tween-80 103 % of control | [11] 92 % of control | dose: 200.0 mg/kg/injection, schedule: Q01DX009 (ip), vehicle: saline with Tween-80 96 % of control

c1ccc2c(c1)NC1CCCCC21 (centres undefined)
inactive: dose: 100.0 mg/kg/injection, schedule: Q01DX001 (ip), vehicle: Klucel (hydroxypropylcellulose) (HPC) 90 % of control | dose: 200.0 mg/kg/injection, schedule: Q01DX001 (ip), vehicle: Klucel (hydroxypropylcellulose) (HPC) 97 % of control | dose: 400.0 mg/kg/injection, schedule: Q01DX001 (ip), vehicle: Klucel (hydroxypropylcellulose) (HPC) 93 % of control

CC(NC(=O)NCCCl)c1ccsc1 (centres undefined)
inactive: dose: 2.5 mg/kg/injection, schedule: Q01DX009 (ip), vehicle: Klucel (hydroxypropylcellulose) (HPC) 111 % of control | dose: 5.0 mg/kg/injection, schedule: Q01DX009 (ip), vehicle: Klucel (hydroxypropylcellulose) (HPC) 98 % of control | dose: 10.0 mg/kg/injection, schedule: Q01DX009 (ip), vehicle: Klucel (hydroxypropylcellulose) (HPC) 94 % of control and 92 % of control

O=C1c2c(Cl)cccc2Cc2cccc(Cl)c21
inactive: dose: 37.5 mg/kg/injection, schedule: Q01DX001 (ip), vehicle: Klucel (hydroxypropylcellulose) (HPC) 107 % of control | dose: 75.0 mg/kg/injection, schedule: Q01DX001 (ip), vehicle: Klucel (hydroxypropylcellulose) (HPC) 102 % of control | dose: 150.0 mg/kg/injection, schedule: Q01DX001 (ip), vehicle: Klucel (hydroxypropylcellulose) (HPC) 100 % of control

Oc1ccccc1C1CC2CCC1C2 (centres undefined)
inactive: [12] 106 % of control | [11] 107 % of control | [8] 103 % of control | [9] 100 % of control

O=C(c1ccccc1)C(C(c1ccccc1)N1CCOCC1)N1CCOCC1 (centres undefined)
inactive: [4] 113 % of control | [5] 102 % of control | [6] 108 % of control | [7] 102 % of control

O=C(O)C1=C(C2CCCCC2)C(=O)c2ccccc21
inactive: dose: 75.0 mg/kg/injection, schedule: Q01DX001 (ip), vehicle: other 112 % of control | dose: 150.0 mg/kg/injection, schedule: Q01DX001 (ip), vehicle: other 93 % of control | dose: 300.0 mg/kg/injection, schedule: Q01DX001 (ip), vehicle: other 102 % of control

COc1ccc(OCCS(=O)(=O)C(CCOS(C)(=O)=O)COS(C)(=O)=O)cc1 (centres undefined)
inactive: dose: 100.0 mg/kg/injection, schedule: Q01DX009 (ip), vehicle: Klucel (hydroxypropylcellulose) (HPC) 96 % of control | dose: 200.0 mg/kg/injection, schedule: Q01DX009 (ip), vehicle: Klucel (hydroxypropylcellulose) (HPC) 93 % of control | dose: 400.0 mg/kg/injection, schedule: Q01DX009 (ip), vehicle: Klucel (hydroxypropylcellulose) (HPC) 98 % of control

C=C(C)C(=O)Nc1c(C)cccc1C
inactive: dose: 100.0 mg/kg/injection, schedule: Q04DX003 (ip), vehicle: Klucel (hydroxypropylcellulose) (HPC) 105 % of control | dose: 200.0 mg/kg/injection, schedule: Q04DX003 (ip), vehicle: Klucel (hydroxypropylcellulose) (HPC) 94 % of control

NCCSCCc1ccccc1
inactive: dose: 25.0 mg/kg/injection, schedule: Q04DX002 (ip), vehicle: saline with Tween-80 100 % of control | [12] 103 % of control

CC(=O)CCCOc1ccc([N+](=O)[O-])cc1
inactive: [5] 98 % of control | [6] 98 % of control | [7] 101 % of control

O=C(O)c1cccc(-n2cnc3c(=O)[nH]cnc32)c1
inactive: [4] 108 % of control | [5] 93 % of control | [6] 96 % of control | [7] 104 % of control

CCN(CC)C(=O)Cn1ccc(O)cc1=O
inactive: [1] 109 % of control | [2] 98 % of control | [3] 104 % of control

O=C(N/N=C/c1ccccc1)c1ccc(Cl)c(Cl)c1
inactive: dose: 100.0 mg/kg/injection, schedule: Q04DX003 (ip), vehicle: other 100 % of control | dose: 200.0 mg/kg/injection, schedule: Q04DX003 (ip), vehicle: other 92 % of control | dose: 400.0 mg/kg/injection, schedule: Q04DX003 (ip), vehicle: other 89 % of control

CCOC(=O)C(C(=S)Nc1ccccc1)=S(C)C
inactive: [8] 87 % of control | [9] 87 % of control | [10] 91 % of control

O=C1C=CC(=C(Br)Br)O1
inactive: dose: 12.5 mg/kg/injection, schedule: Q04DX003 (ip), vehicle: saline with Tween-80 92 % of control | dose: 12.5 mg/kg/injection, schedule: Q04DX003 (ip), vehicle: saline 97 % of control | dose: 25.0 mg/kg/injection, schedule: Q04DX003 (ip), vehicle: saline with Tween-80 103 % of control | dose: 25.0 mg/kg/injection, schedule: Q04DX003 (ip), vehicle: saline 95 % of control | dose: 50.0 mg/kg/injection, schedule: Q04DX003 (ip), vehicle: saline 92 % of control | dose: 100.0 mg/kg/injection, schedule: Q04DX003 (ip), vehicle: saline 98 % of control

Reference: PubChem BioAssay AID248 (DTP/NCI, 2004)
